According to PubChem BioAssay AID1919016 (Molecular Pharmacology Branch, DTP, NCI, 2023):
Blank lines part the entries; values can stand above or below the compound they belong to.

Test system: NCI-H196 complex spheroid growth, percent test/control
Test: Anticancer human tumor NCI-H196 cell line growth inhibition [AhR];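 note: seven days of drug exposure starting three days after plating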;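 for viability, T/C: 100% = DMSO vehicle control wells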
Conditions: for IC50: curve of first compound; for viability, T/C: stronger effect = lower value
In short: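 Spheroids combined tumor cells with HUVEC endothelial cells and human MSCs as stroma. AhR antagonists were paired with standard or investigational drugs, each dosed in half-log steps down from near clinical Cmax, or from 10 microM where Cmax was unknown.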

[1] = second compound 0.1 µM, first compound 0.0316 µM
[2] = second compound 0.1 µM, first compound 0.1 µM
[3] = second compound 0.1 µM, first compound 0.316 µM
[4] = second compound 0.1 µM, first compound 1 µM
[5] = second compound 0.316 µM, first compound 0.0316 µM
[6] = second compound 0.316 µM, first compound 0.1 µM
[7] = second compound 0.316 µM, first compound 0.316 µM
[8] = second compound 0.316 µM, first compound 1 µM
[9] = second compound 1 µM, first compound 0.0316 µM
[10] = second compound 1 µM, first compound 0.1 µM
[11] = second compound 1 µM, first compound 0.316 µM
[12] = second compound 1 µM, first compound 1 µM
[13] = second compound 3.16 µM, first compound 0.0316 µM
[14] = second compound 3.16 µM, first compound 0.1 µM
[15] = second compound 3.16 µM, first compound 0.316 µM
[16] = second compound 3.16 µM, first compound 1 µM
[17] = second compound 10 µM, first compound 0.0316 µM
[18] = second compound 10 µM, first compound 0.1 µM
[19] = second compound 10 µM, first compound 0.316 µM
[20] = second compound 10 µM, first compound 1 µM
[21] = second compound 0.1 µM, first compound 3.16 µM
[22] = second compound 0.1 µM, first compound 10 µM
[23] = second compound 0.316 µM, first compound 3.16 µM
[24] = second compound 0.316 µM, first compound 10 µM
[25] = second compound 1 µM, first compound 3.16 µM
[26] = second compound 1 µM, first compound 10 µM
[27] = second compound 3.16 µM, first compound 3.16 µM
[28] = second compound 3.16 µM, first compound 10 µM
[29] = second compound 10 µM, first compound 3.16 µM
[30] = second compound 10 µM, first compound 10 µM
[31] = second compound 0.1 µM, first compound 0.00949 µM
[32] = second compound 0.1 µM, first compound 0.03 µM
[33] = second compound 0.1 µM, first compound 0.0949 µM
[34] = second compound 0.1 µM, first compound 0.3 µM
[35] = second compound 0.316 µM, first compound 0.00949 µM
[36] = second compound 0.316 µM, first compound 0.03 µM
[37] = second compound 0.316 µM, first compound 0.0949 µM
[38] = second compound 0.316 µM, first compound 0.3 µM
[39] = second compound 1 µM, first compound 0.00949 µM
[40] = second compound 1 µM, first compound 0.03 µM
[41] = second compound 1 µM, first compound 0.0949 µM
[42] = second compound 1 µM, first compound 0.3 µM
[43] = second compound 3.16 µM, first compound 0.00949 µM
[44] = second compound 3.16 µM, first compound 0.03 µM
[45] = second compound 3.16 µM, first compound 0.0949 µM
[46] = second compound 3.16 µM, first compound 0.3 µM
[47] = second compound 10 µM, first compound 0.00949 µM
[48] = second compound 10 µM, first compound 0.03 µM
[49] = second compound 10 µM, first compound 0.0949 µM
[50] = second compound 10 µM, first compound 0.3 µM

Structure (SMILES): CC1COCCN1c1cc(-c2ccnn2C)c2ccnc(-c3ccn[nH]3)c2n1 (stereo not given) + CC(CO)NC(=O)c1cc(-c2ccc(Cl)cc2)nn(-c2cnn(C)c2)c1=O
IC50 (second compound 0.1 µM): > 1000 nM
IC50 (second compound 0.316 µM): > 1000 nM
IC50 (second compound 1 µM): > 1000 nM
IC50 (second compound 3.16 µM): > 1000 nM
IC50 (second compound 10 µM): > 1000 nM
viability, T/C (second compound 0.1 µM, first compound 0.00316 µM): 104%
viability, T/C (second compound 0.1 µM, first compound 0.01 µM): 109%
viability, T/C [1]: 101%
viability, T/C [2]: 79.3%
viability, T/C [3]: 72.2%
viability, T/C [4]: 61.1%
viability, T/C (second compound 0.316 µM, first compound 0.00316 µM): 105%
viability, T/C (second compound 0.316 µM, first compound 0.01 µM): 98.9%
viability, T/C [5]: 97.9%
viability, T/C [6]: 78.6%
viability, T/C [7]: 66.3%
viability, T/C [8]: 68.5%
viability, T/C (second compound 1 µM, first compound 0.00316 µM): 108%
viability, T/C (second compound 1 µM, first compound 0.01 µM): 104%
viability, T/C [9]: 101%
viability, T/C [10]: 90.8%
viability, T/C [11]: 77.4%
viability, T/C [12]: 71%
viability, T/C (second compound 3.16 µM, first compound 0.00316 µM): 111%
viability, T/C (second compound 3.16 µM, first compound 0.01 µM): 102%
viability, T/C [13]: 98%
viability, T/C [14]: 82.4%
viability, T/C [15]: 80%
viability, T/C [16]: 66.5%
viability, T/C (second compound 10 µM, first compound 0.00316 µM): 103%
viability, T/C (second compound 10 µM, first compound 0.01 µM): 98.5%
viability, T/C [17]: 107%
viability, T/C [18]: 89.4%
viability, T/C [19]: 74.2%
viability, T/C [20]: 79.8%

Structure (SMILES): CC1COCCN1c1cc(C2(S(C)(=N)=O)CC2)nc(-c2ccnc3[nH]ccc23)n1 (stereo not given) + CC(CO)NC(=O)c1cc(-c2ccc(Cl)cc2)nn(-c2cnn(C)c2)c1=O
IC50 (second compound 0.1 µM): > 10000 nM
IC50 (second compound 0.316 µM): > 10000 nM
IC50 (second compound 1 µM): > 10000 nM
IC50 (second compound 3.16 µM): > 10000 nM
IC50 (second compound 10 µM): > 10000 nM
viability, T/C [1]: 106%
viability, T/C [2]: 115%
viability, T/C [3]: 98.6%
viability, T/C [4]: 117%
viability, T/C [21]: 101%
viability, T/C [22]: 87%
viability, T/C [5]: 103%
viability, T/C [6]: 110%
viability, T/C [7]: 114%
viability, T/C [8]: 104%
viability, T/C [23]: 89.8%
viability, T/C [24]: 91.1%
viability, T/C [9]: 113%
viability, T/C [10]: 114%
viability, T/C [11]: 114%
viability, T/C [12]: 109%
viability, T/C [25]: 100%
viability, T/C [26]: 85.8%
viability, T/C [13]: 119%
viability, T/C [14]: 126%
viability, T/C [15]: 106%
viability, T/C [16]: 111%
viability, T/C [27]: 99.3%
viability, T/C [28]: 83.8%
viability, T/C [17]: 113%
viability, T/C [18]: 115%
viability, T/C [19]: 109%
viability, T/C [20]: 120%
viability, T/C [29]: 103%
viability, T/C [30]: 81.8%

Structure (SMILES): COc1ccc([C@@H](O)c2cc(-c3ncnc4cc(N5CCOCC5)ccc34)c(F)cc2Cl)nn1 + CC(CO)NC(=O)c1cc(-c2ccc(Cl)cc2)nn(-c2cnn(C)c2)c1=O
IC50 (second compound 0.1 µM): > 10000 nM
IC50 (second compound 0.316 µM): > 10000 nM
IC50 (second compound 1 µM): > 10000 nM
IC50 (second compound 3.16 µM): > 10000 nM
IC50 (second compound 10 µM): > 10000 nM
viability, T/C [1]: 102%
viability, T/C [2]: 91.2%
viability, T/C [3]: 94.5%
viability, T/C [4]: 80.3%
viability, T/C [21]: 75.6%
viability, T/C [22]: 82.4%
viability, T/C [5]: 109%
viability, T/C [6]: 100%
viability, T/C [7]: 94.9%
viability, T/C [8]: 83.3%
viability, T/C [23]: 80.2%
viability, T/C [24]: 75.8%
viability, T/C [9]: 107%
viability, T/C [10]: 106%
viability, T/C [11]: 102%
viability, T/C [12]: 89.3%
viability, T/C [25]: 77%
viability, T/C [26]: 72.8%
viability, T/C [13]: 108%
viability, T/C [14]: 113%
viability, T/C [15]: 114%
viability, T/C [16]: 96.1%
viability, T/C [27]: 84.1%
viability, T/C [28]: 78.7%
viability, T/C [17]: 115%
viability, T/C [18]: 104%
viability, T/C [19]: 95.4%
viability, T/C [20]: 84.5%
viability, T/C [29]: 75.8%
viability, T/C [30]: 72.3%

Second part, led by results:

IC50 (second compound 0.1 µM): > 300 nM
IC50 (second compound 0.316 µM): > 300 nM
IC50 (second compound 1 µM): > 300 nM
IC50 (second compound 3.16 µM): > 300 nM
IC50 (second compound 10 µM): > 300 nM
Structure (SMILES): Nc1ncn(C2CC(O)C(CO)S2)c(=O)n1 (stereo not given) + CC(CO)NC(=O)c1cc(-c2ccc(Cl)cc2)nn(-c2cnn(C)c2)c1=O
viability, T/C (second compound 0.1 µM, first compound 0.000949 µM): 104%
viability, T/C (second compound 0.1 µM, first compound 0.003 µM): 94.2%
viability, T/C [31]: 103%
viability, T/C [32]: 108%
viability, T/C [33]: 116%
viability, T/C [34]: 103%
viability, T/C (second compound 0.316 µM, first compound 0.000949 µM): 105%
viability, T/C (second compound 0.316 µM, first compound 0.003 µM): 104%
viability, T/C [35]: 94.2%
viability, T/C [36]: 101%
viability, T/C [37]: 113%
viability, T/C [38]: 105%
viability, T/C (second compound 1 µM, first compound 0.000949 µM): 107%
viability, T/C (second compound 1 µM, first compound 0.003 µM): 104%
viability, T/C [39]: 112%
viability, T/C [40]: 110%
viability, T/C [41]: 112%
viability, T/C [42]: 118%
viability, T/C (second compound 3.16 µM, first compound 0.000949 µM): 106%
viability, T/C (second compound 3.16 µM, first compound 0.003 µM): 101%
viability, T/C [43]: 110%
viability, T/C [44]: 114%
viability, T/C [45]: 120%
viability, T/C [46]: 127%
viability, T/C (second compound 10 µM, first compound 0.000949 µM): 108%
viability, T/C (second compound 10 µM, first compound 0.003 µM): 116%
viability, T/C [47]: 118%
viability, T/C [48]: 114%
viability, T/C [49]: 111%
viability, T/C [50]: 112%

IC50 (second compound 0.1 µM): 45.1 nM
IC50 (second compound 0.316 µM): 37.4 nM
IC50 (second compound 1 µM): 33.3 nM
IC50 (second compound 3.16 µM): 38.4 nM
IC50 (second compound 10 µM): 45.8 nM
Structure (SMILES): O=C(C=Cn1cnc(-c2cc(C(F)(F)F)cc(C(F)(F)F)c2)n1)NNc1cnccn1 + CC(CO)NC(=O)c1cc(-c2ccc(Cl)cc2)nn(-c2cnn(C)c2)c1=O
viability, T/C [31]: 71.2%
viability, T/C [32]: 71.1%
viability, T/C [33]: 11.6%
viability, T/C [34]: 11.1%
viability, T/C (second compound 0.1 µM, first compound 0.949 µM): 7.23%
viability, T/C (second compound 0.1 µM, first compound 3 µM): 6.89%
viability, T/C [35]: 74.7%
viability, T/C [36]: 58.2%
viability, T/C [37]: 14.9%
viability, T/C [38]: 12.3%
viability, T/C (second compound 0.316 µM, first compound 0.949 µM): 8.19%
viability, T/C (second compound 0.316 µM, first compound 3 µM): 7.69%
viability, T/C [39]: 73.2%
viability, T/C [40]: 53.6%
viability, T/C [41]: 14.3%
viability, T/C [42]: 7.96%
viability, T/C (second compound 1 µM, first compound 0.949 µM): 8.07%
viability, T/C (second compound 1 µM, first compound 3 µM): 6.9%
viability, T/C [43]: 75.9%
viability, T/C [44]: 59.1%
viability, T/C [45]: 16.4%
viability, T/C [46]: 7.92%
viability, T/C (second compound 3.16 µM, first compound 0.949 µM): 6.29%
viability, T/C (second compound 3.16 µM, first compound 3 µM): 7.99%
viability, T/C [47]: 80.6%
viability, T/C [48]: 69.1%
viability, T/C [49]: 17.2%
viability, T/C [50]: 11.2%
viability, T/C (second compound 10 µM, first compound 0.949 µM): 10.8%
viability, T/C (second compound 10 µM, first compound 3 µM): 7.46%
